Experimental data: ChEMBL document CHEMBL1144130, “11-Deoxyfistularin-3, a new cytotoxic metabolite from the caribbean sponge Aplysina fistularis insularis” (1999)

What was measured:
Format in all cases: functional
HeLa = test: Cytotoxicity against human HeLa cells after 96 hrs by MTT assay; settings: read-out: LD50 (the source's name)
MCF7 = test: Cytotoxicity against human MCF7 cells after 96 hrs by MTT assay; settings: MCF7, 96 h, read-out: LD50 (the source's name)
LoVo = test: Cytotoxicity against human LoVo cells after 96 hrs by MTT assay; settings: read-out: LD50 (the source's name)
RD = test: Cytotoxicity against human RD cells after 96 hrs by MTT assay; settings: read-out: LD50 (the source's name)
HEp-2 = test: Cytotoxicity against human Hep2 cells after 96 hrs by MTT assay; settings: HEp-2, 96 h, read-out: LD50 (the source's name)
[1] = Cytotoxicity against human XL17 cells after 96 hrs by MTT assay; settings: XL17, 96 h, read-out: LD50 (the source's name)

Measured: CC50

COC1=C(Br)[C@H](O)[C@@]2(C=C1Br)CC(C(=O)NCCCOc1c(Br)cc(C(O)CNC(=O)C3=NO[C@]4(C=C(Br)C(OC)=C(Br)[C@@H]4O)C3)cc1Br)=NO2 (stereo partly specified)
17 µg/mL: HeLa | LoVo | RD | HEp-2 | [1]
> 50 µg/mL: MCF7
